Laboratory results published in the supplement of paper PMC11061612.

Legend:
AZD1775 = compound: C=CCn1c(=O)c2cnc(Nc3ccc(N4CCN(C)CC4)cc3)nc2n1-c1cccc(C(C)(C)O)n1 [AZD1775]; conditions: max 3 µM
In short: (§1)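 Cancer cell lines were plated in 1536-well plates in 7.5 μl of DMEM/F12 or RPMI with 10% FBS and kept 24 hours at 37°C and 5% CO2 before 72 hours of dosing, with final DMSO typically 0.2%. CellTiter-Glo 2.0 luminescence measured viability, scaled between blank-well and DMSO-well means. Dose responses were fitted to a two-parameter logistic curve with a non-linear mixed effects model. This fit gives the single-agent IC50.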

Savolitinib = compound: C[C@@H](c1ccc2nccn2c1)n1nnc2ncc(-c3cnn(C)c3)nc21 [Savolitinib]; conditions: max 1 µM
In short: as §1

Gefitinib = compound: COc1cc2ncnc(Nc3ccc(F)c(Cl)c3)c2cc1OCCCN1CCOCC1 [Gefitinib]; conditions: max 10 µM
In short: as §1

Prexasertib = compound: COc1cccc(OCCCN)c1-c1cc(Nc2cnc(C#N)cn2)n[nH]1 [Prexasertib]; conditions: max 1 µM
In short: as §1

SG3199 = compound: CC1=CN2[C@@H](C1)C=NC3=CC(=C(C=C3C2=O)OC)OCCCCCOC4=C(C=C5C(=C4)N=C[C@@H]6CC(=CN6C5=O)C)OC [SG3199]; conditions: max 0.001 µM
In short: as §1

AZD5153 = compound: COc1nnc2ccc(N3CCC(c4ccc(OCCN5CCN(C)C(=O)[C@H]5C)cc4)CC3)nn12 [AZD5153]; conditions: max 1 µM
In short: as §1

Venetoclax = compound: CC1(C)CCC(CN2CCN(c3ccc(C(=O)NS(=O)(=O)c4ccc(NCC5CCOCC5)c([N+](=O)[O-])c4)c(Oc4cnc5[nH]ccc5c4)c3)CC2)=C(c2ccc(Cl)cc2)C1 [Venetoclax]; conditions: max 1 µM
In short: as §1

Olaparib = compound: O=C(c1cc(Cc2n[nH]c(=O)c3ccccc23)ccc1F)N1CCN(C(=O)C2CC2)CC1 [Olaparib]; conditions: max 10 µM
In short: as §1

Trametinib = compound: CC(=O)Nc1cccc(-n2c(=O)n(C3CC3)c(=O)c3c(Nc4ccc(I)cc4F)n(C)c(=O)c(C)c32)c1 [Trametinib]; conditions: max 1 µM
In short: as §1

Capivasertib = compound: C1CN(CCC1(C(=O)N[C@@H](CCO)C2=CC=C(C=C2)Cl)N)C3=NC=NC4=C3C=CN4 [Capivasertib]; conditions: max 10 µM
In short: as §1

Taselisib = compound: Cc1nc(-c2cn3c(n2)-c2ccc(-c4cnn(C(C)(C)C(N)=O)c4)cc2OCC3)n(C(C)C)n1 [Taselisib]; conditions: max 10 µM
In short: as §1

Palbociclib = compound: CC(=O)c1c(C)c2cnc(Nc3ccc(N4CCNCC4)cn3)nc2n(C2CCCC2)c1=O [Palbociclib]; conditions: max 10 µM
In short: as §1

Alisertib = compound: COc1cc(Nc2ncc3c(n2)-c2ccc(Cl)cc2C(c2c(F)cccc2OC)=NC3)ccc1C(=O)O [Alisertib]; conditions: max 10 µM
In short: as §1

Doxorubicin = compound: COc1cccc2c1C(=O)c1c(O)c3c(c(O)c1C2=O)C[C@@](O)(C(=O)CO)C[C@@H]3O[C@H]1C[C@H](N)[C@H](O)[C@H](C)O1 [Doxorubicin]; conditions: max 1 µM
In short: as §1

AZD0156 = compound: CN(C)CCCOc1ccc(-c2ccc3ncc4c(c3c2)n(C2CCOCC2)c(=O)n4C)cn1 [AZD0156]; conditions: max 3 µM
In short: as §1

Selumetinib = compound: Cn1cnc2c(F)c(Nc3ccc(Br)cc3Cl)c(C(=O)NOCCO)cc21 [Selumetinib]; conditions: max 10 µM
In short: as §1

SN-38 = compound: CCc1c2c(nc3ccc(O)cc13)-c1cc3c(c(=O)n1C2)COC(=O)[C@]3(O)CC [SN-38]; conditions: max 0.3 µM
In short: as §1

AZD5991 = compound: Cc1c2c(nn1C)CSCc1cc(n(C)n1)CSc1cc(c3ccccc3c1)OCCCc1c(C(=O)O)n(C)c3c-2c(Cl)ccc13 [AZD5991]; conditions: max 1 µM
In short: as §1

AZD2811 = compound: CCN(CCO)CCCOc1ccc2c(Nc3cc(CC(=O)Nc4cccc(F)c4)[nH]n3)ncnc2c1 [AZD2811]; conditions: max 1 µM
In short: as §1

AZD1390 = compound: CC(C)n1c(=O)n(C)c2cnc3cc(F)c(-c4ccc(OCCCN5CCCCC5)nc4)cc3c21 [AZD1390]; conditions: max 0.3 µM
In short: as §1

Crizotinib = compound: C[C@@H](Oc1cc(-c2cnn(C3CCNCC3)c2)cnc1N)c1c(Cl)ccc(F)c1Cl [Crizotinib]; conditions: max 10 µM
In short: as §1

AZD4320 = compound: CN(CC[C@H](CSC1=CC=CC=C1)NC2=C(C=C(C=C2)S(=O)(=O)NC(=O)C3=CC=C(C=C3)N4CCC(CC4)[C@H](C5=CC=CC=C5C6=CC=C(C=C6)Cl)O)S(=O)(=O)C(F)(F)F)CCO [AZD4320]; conditions: max 1 µM
In short: as §1

AZD8186 = compound: C[C@@H](Nc1cc(F)cc(F)c1)c1cc(C(=O)N(C)C)cc2c(=O)cc(N3CCOCC3)oc12 [AZD8186]; conditions: max 3 µM
In short: as §1

Dasatinib = compound: CC1=C(C(=CC=C1)Cl)NC(=O)C2=CN=C(S2)NC3=CC(=NC(=N3)C)N4CCN(CC4)CCO [Dasatinib]; conditions: max 2 µM
In short: as §1

AZD7648 = compound: Cc1cc2ncnn2cc1Nc1ncc2c(n1)n(C1CCOCC1)c(=O)n2C [AZD7648]; conditions: max 10 µM
In short: as §1

Lapatinib = compound: CS(=O)(=O)CCNCc1ccc(-c2ccc3ncnc(Nc4ccc(OCc5cccc(F)c5)c(Cl)c4)c3c2)o1 [Lapatinib]; conditions: max 10 µM
In short: as §1

AZD6738 = compound: C[C@@H]1COCCN1C2=NC(=NC(=C2)C3(CC3)[S@](=N)(=O)C)C4=C5C=CNC5=NC=C4 [AZD6738]; conditions: max 10 µM
In short: as §1

Row | Cell Line | IC50, cell viability 72 h (AZD1775) | IC50, cell viability 72 h (Savolitinib) | IC50, cell viability 72 h (Gefitinib) | IC50, cell viability 72 h (Prexasertib) | IC50, cell viability 72 h (SG3199) | IC50, cell viability 72 h (AZD5153) | IC50, cell viability 72 h (Venetoclax) | IC50, cell viability 72 h (Olaparib) | IC50, cell viability 72 h (Trametinib) | IC50, cell viability 72 h (Capivasertib) | IC50, cell viability 72 h (Taselisib) | IC50, cell viability 72 h (Palbociclib) | IC50, cell viability 72 h (Alisertib) | IC50, cell viability 72 h (Doxorubicin) | IC50, cell viability 72 h (AZD0156) | IC50, cell viability 72 h (Selumetinib) | IC50, cell viability 72 h (SN-38) | IC50, cell viability 72 h (AZD5991) | IC50, cell viability 72 h (AZD2811) | IC50, cell viability 72 h (AZD1390) | IC50, cell viability 72 h (Crizotinib) | IC50, cell viability 72 h (AZD4320) | IC50, cell viability 72 h (AZD8186) | IC50, cell viability 72 h (Dasatinib) | IC50, cell viability 72 h (AZD7648) | IC50, cell viability 72 h (Lapatinib) | IC50, cell viability 72 h (AZD6738)
1 | KMS-12-BM (Plasma Cell Myeloma) | 329 nM | > 1000 nM | > 10000 nM | 17 nM | > 1 nM | 13.4 nM | 16.4 nM | > 10000 nM | > 1000 nM | 9310 nM | 2430 nM | 3660 nM | 3570 nM | 891 nM | > 3000 nM | > 10000 nM | 24.8 nM | 13.9 nM | > 1000 nM | > 300 nM | 3540 nM | 17.3 nM | > 3000 nM | > 2000 nM | > 10000 nM | 7080 nM | 
2 | MOLM-13 (Acute Myeloid Leukemia) | 160 nM | > 1000 nM | 4320 nM | 5.31 nM | > 1 nM | 28.9 nM | 23.5 nM | 6770 nM | 24.2 nM | 1870 nM | 6310 nM | 605 nM | 52.7 nM | 40 nM | > 3000 nM | 4040 nM | 3.55 nM | 46.5 nM | 18.9 nM | > 300 nM | 1230 nM | 6.77 nM | > 3000 nM | 932 nM | > 10000 nM | > 10000 nM | 584 nM
3 | NCI-H661 (Non-Small Cell Lung Carcinoma) | 765 nM | > 1000 nM | > 10000 nM | 46.8 nM | > 1 nM | > 1000 nM | > 1000 nM | > 10000 nM | > 1000 nM | > 10000 nM | > 10000 nM | > 10000 nM | > 10000 nM | > 1000 nM | > 3000 nM | > 10000 nM | > 300 nM | > 1000 nM | > 1000 nM | > 300 nM | > 10000 nM | > 1000 nM | > 3000 nM | > 2000 nM | > 10000 nM | > 10000 nM | > 10000 nM
4 | PC-3 (Prostate Carcinoma) | > 3000 nM | > 1000 nM | > 10000 nM | > 1000 nM | > 1 nM | > 1000 nM | > 1000 nM | > 10000 nM | > 1000 nM | > 10000 nM | > 10000 nM | > 10000 nM | > 10000 nM | > 1000 nM | > 3000 nM | > 10000 nM | 82.7 nM | > 1000 nM | > 1000 nM | > 300 nM | > 10000 nM | > 1000 nM | > 3000 nM | > 2000 nM | > 10000 nM | > 10000 nM | > 10000 nM
5 | RD (Rhabdomyosarcoma) | 1030 nM | > 1000 nM | > 10000 nM | 465 nM | > 1 nM | 951 nM | > 1000 nM | > 10000 nM | > 1000 nM | > 10000 nM | 2270 nM | > 10000 nM | > 10000 nM | > 1000 nM | > 3000 nM | > 10000 nM | > 300 nM | > 1000 nM | > 1000 nM | > 300 nM | > 10000 nM | 706 nM | > 3000 nM | > 2000 nM | > 10000 nM | > 10000 nM | > 10000 nM
6 | RPMI-8226 (Plasma Cell Myeloma) | 1600 nM | > 1000 nM | > 10000 nM | 30.5 nM | > 1 nM | 114 nM | > 1000 nM | > 10000 nM | > 1000 nM | > 10000 nM | > 10000 nM | 5790 nM | 1410 nM | 599 nM | > 3000 nM | > 10000 nM | 59.6 nM | 88.2 nM | > 1000 nM | > 300 nM | > 10000 nM | 150 nM | > 3000 nM | > 2000 nM | > 10000 nM | > 10000 nM | 2020 nM
7 | SK-GT-2 (Gastric Carcinoma) | 848 nM | > 1000 nM | 4890 nM | 76.7 nM | > 1 nM | > 1000 nM | > 1000 nM | > 10000 nM | > 1000 nM | > 10000 nM | 6640 nM | > 10000 nM | > 10000 nM | > 1000 nM | > 3000 nM | > 10000 nM | > 300 nM | > 1000 nM | > 1000 nM | > 300 nM | > 10000 nM | > 1000 nM | > 3000 nM | > 2000 nM | > 10000 nM | 1130 nM | > 10000 nM
8 | SNU-398 (Hepatocellular Carcinoma) | 701 nM | > 1000 nM | > 10000 nM | 777 nM | > 1 nM | 941 nM | > 1000 nM | > 10000 nM | 849 nM | > 10000 nM | > 10000 nM | > 10000 nM | 4320 nM | > 1000 nM | > 3000 nM | > 10000 nM | > 300 nM | 150 nM | 801 nM | > 300 nM | > 10000 nM | > 1000 nM | > 3000 nM | > 2000 nM | > 10000 nM | > 10000 nM | > 10000 nM
